Assay type in all cases: in vivo
One assay relates to S. pneumoniae 157E. Kind of assay: Oral efficacy (PD50) in mice with acute systemic infection by susceptible S. pneumoniae. To be noted: Streptococcus pneumoniae, read-out: PD50, S. pneumoniae 157E. As for the experimental part:
(§1) Relative to linezolid, the PD50 values for a number of the compounds were within an 2-fold range against the resistant organism. Compounds with PD50 values of less than 7 mg/kg/dose are indicated with “***.” Compounds with PD50 values of less than 14 mg/kg/dose but greater than 7 mg/kg/dose are indicated with “**.” Compounds with PD50 values of greater than 14 mg/kg/dose, but less than 21 mg/kg/dose are indicated with “*.” Compounds with PD50 values greater than 21 mg/kg/dose are indicated with “−”

Assay [1] has as its system S. pneumoniae 157E (tet^S). Put plainly: Oral efficacy screen, murine model of S. pneumoniae systemic infection (survival). To be noted: Streptococcus pneumoniae, 1 h, read-out: % survival at 10 (po) mg/kg. The protocol: The following example was used to assess the oral bioavailability of compounds of the invention in an oral efficacy screen in murine models of infection. The compounds were screened by administering a single 10 mg/kg oral dose to mice 1 hour after administration of a lethal intraperitoneal inoculum of S. pneumoniae 157E (tet^S).
In Table 1 below, compounds with a survival rate of ≧80% are indicated with ‘***”; compounds with a survival rate of ≧60% are indicated with ‘**” and compounds with a survival rate of […] are indicated with ‘*’. Compounds with a survival rate of less than 20% are indicated with ‘−’.

For another assay, the system named is S. pneumoniae 700905. Kind of assay: Oral efficacy (PD50) in mice with acute systemic infection by resistant S. pneumoniae. To be noted: Streptococcus pneumoniae, resistant S. pneumoniae 700905. The protocol:
as §1

The mark [2] stands for this setting: mice, oral, acute systemic infection, susceptible S. pneumoniae 157E.

Molecules are shown by their SMILES. Read-outs that look alike come from different tables or passages of the source. A value given as a limit tells only on which side of the number the result lay.

In the case of `CN(C)c1cc(CN(CC(C)(C)C)C(=O)OCOC(=O)C(C)(C)C)c(O)c2c1C[C@H]1C[C@H]3[C@H](N(C)C)C(O)=C(C(N)=O)C(=O)[C@@]3(O)C(O)=C1C2=O` [A], the ED50 in the assay on S. pneumoniae 157E (157E, po) was below 7 mg/kg; in the assay with S. pneumoniae 700905, below 7 mg/kg. Also, in assay [1], the responders at 10 mg/kg is above 80%.

Consider `CC1(C)S[C@@H]2[C@H](NC(=O)[C@H](N)c3ccccc3)C(=O)N2[C@H]1C(=O)O` [Ampicillin, reference compound], for which, in the assay on S. pneumoniae 157E (setting [2]), the ED50 lay in the range of 14 to 21 mg/kg.

For the molecule `CC[C@H]1OC(=O)[C@H](C)[C@@H](O[C@H]2C[C@@](C)(OC)[C@@H](O)[C@H](C)O2)[C@H](C)[C@@H](O[C@@H]2O[C@H](C)C[C@H](N(C)C)[C@H]2O)[C@](C)(O)C[C@@H](C)CN(C)[C@H](C)[C@@H](O)[C@]1(C)O` [Azithromycin, reference compound], the ED50 with S. pneumoniae 157E (setting [2]) lay in the range of 7 to 14 mg/kg.

With `CC(=O)OCOC(=O)N(Cc1cc(N(C)C)c2c(c1O)C(=O)C1=C(O)[C@]3(O)C(=O)C(C(N)=O)=C(O)[C@@H](N(C)C)[C@@H]3C[C@@H]1C2)CC(C)(C)C` [B], the ED50 with S. pneumoniae 157E (157E, po) was 7 to 14 mg/kg; in the assay with S. pneumoniae 700905, 7 to 14 mg/kg. In assay [1], the responders at 10 mg/kg was above 80%.

Regarding `CN(C)c1cc(CN(CC(C)(C)C)C(=O)OCOC(=O)c2ccccc2)c(O)c2c1C[C@H]1C[C@H]3[C@H](N(C)C)C(O)=C(C(N)=O)C(=O)[C@@]3(O)C(O)=C1C2=O` [D], the ED50 with S. pneumoniae 157E (157E, po) is below 7 mg/kg. In addition, the responders at 10 mg/kg in assay [1] was above 0%.

On to `C[C@H]1c2cccc(O)c2C(=O)C2=C(O)[C@]3(O)C(=O)C(C(N)=O)=C(O)[C@@H](N(C)C)[C@@H]3[C@@H](O)[C@@H]21` [Doxycycline, reference compound], for which, in the assay with S. pneumoniae 157E (setting [2]), the ED50 is below 7 mg/kg.

As to `CN(C)c1cc(CN(CC(C)(C)C)C(=O)OCOC(=O)CCc2ccccc2)c(O)c2c1C[C@H]1C[C@H]3[C@H](N(C)C)C(O)=C(C(N)=O)C(=O)[C@@]3(O)C(O)=C1C2=O` [E], the responders at 10 mg/kg in assay [1] was above 0%.

With `CN(C)c1cc(CN(CC(C)(C)C)C(=O)OCOC(=O)C2CCCCC2)c(O)c2c1C[C@H]1C[C@H]3[C@H](N(C)C)C(O)=C(C(N)=O)C(=O)[C@@]3(O)C(O)=C1C2=O` [F], the ED50 in the assay on S. pneumoniae 157E (157E, po) is below 7 mg/kg; in the assay with S. pneumoniae 700905 it was 14 to 21 mg/kg. Further, the responders at 10 mg/kg in assay [1] is above 60%.

Consider `COc1ccc(C(=O)OCOC(=O)N(Cc2cc(N(C)C)c3c(c2O)C(=O)C2=C(O)[C@]4(O)C(=O)C(C(N)=O)=C(O)[C@@H](N(C)C)[C@@H]4C[C@@H]2C3)CC(C)(C)C)cc1` [G], for which the ED50 in the assay on S. pneumoniae 157E (157E, po) is 7 to 14 mg/kg. In addition, the responders at 10 mg/kg in assay [1] was above 60%.

As to `CN(C)c1cc(CN(CC(C)(C)C)C(=O)OCOC(=O)CC(C)(C)C)c(O)c2c1C[C@H]1C[C@H]3[C@H](N(C)C)C(O)=C(C(N)=O)C(=O)[C@@]3(O)C(O)=C1C2=O` [H], the ED50 with S. pneumoniae 157E (157E, po) is below 7 mg/kg; in the assay with S. pneumoniae 700905, 7 to 14 mg/kg. Moreover, in assay [1], the responders at 10 mg/kg was above 80%.

On to `CC(OC(=O)N(Cc1cc(N(C)C)c2c(c1O)C(=O)C1=C(O)[C@]3(O)C(=O)C(C(N)=O)=C(O)[C@@H](N(C)C)[C@@H]3C[C@@H]1C2)CC(C)(C)C)OC(=O)C(C)(C)C` (some centres unmarked) [I], for which the responders at 10 mg/kg in assay [1] was above 80%. Moreover, in the assay on S. pneumoniae 700905, the ED50 lay within 7 to 14 mg/kg.

Consider `COCC(=O)OCOC(=O)N(Cc1cc(N(C)C)c2c(c1O)C(=O)C1=C(O)[C@]3(O)C(=O)C(C(N)=O)=C(O)[C@@H](N(C)C)[C@@H]3C[C@@H]1C2)CC(C)(C)C` [J], for which, in assay [1], the responders at 10 mg/kg was above 0%.

`COCCC(=O)OCOC(=O)N(Cc1cc(N(C)C)c2c(c1O)C(=O)C1=C(O)[C@]3(O)C(=O)C(C(N)=O)=C(O)[C@@H](N(C)C)[C@@H]3C[C@@H]1C2)CC(C)(C)C` [K]: the ED50 in the assay on S. pneumoniae 157E (157E, po) is below 7 mg/kg; in the assay with S. pneumoniae 700905 it was 14 to 21 mg/kg. Further, the responders at 10 mg/kg in assay [1] was above 80%.

Take `COCCOCC(=O)OCOC(=O)N(Cc1cc(N(C)C)c2c(c1O)C(=O)C1=C(O)[C@]3(O)C(=O)C(C(C)=O)=C(O)[C@@H](N(C)C)[C@@H]3C[C@@H]1C2)CC(C)(C)C` [L]: the responders at 10 mg/kg in assay [1] was above 60%.

Regarding `CC(=O)NC[C@H]1CN(c2ccc(N3CCOCC3)c(F)c2)C(=O)O1` [Linezolid, reference compound], the ED50 in the assay with S. pneumoniae 157E (setting [2]) is below 7 mg/kg; with S. pneumoniae 700905, 7 to 14 mg/kg.

Regarding `CN(C)c1cc(CN(CC(C)(C)C)C(=O)OCOC(=O)c2ccc(C(F)(F)F)cc2)c(O)c2c1C[C@H]1C[C@H]3[C@H](N(C)C)C(O)=C(C(N)=O)C(=O)[C@@]3(O)C(O)=C1C2=O` [M], the responders at 10 mg/kg in assay [1] was above 80%.

On to `CN(C)c1ccc(O)c2c1C[C@H]1C[C@H]3[C@H](N(C)C)C(O)=C(C(N)=O)C(=O)[C@@]3(O)C(O)=C1C2=O` [Minocycline, reference compound], for which the ED50 with S. pneumoniae 157E (setting [2]) was in the range of 7 to 14 mg/kg.

In the case of `CN(C)c1cc(CN(CC(C)(C)C)C(=O)OCOC(=O)c2c(F)cccc2F)c(O)c2c1C[C@H]1C[C@H]3[C@H](N(C)C)C(O)=C(C(N)=O)C(=O)[C@@]3(O)C(O)=C1C2=O` [N], the responders at 10 mg/kg in assay [1] is above 80%. Besides, in the assay on S. pneumoniae 700905, the ED50 lay within 14 to 21 mg/kg.

On to `CN(C)c1cc(CN(CC(C)(C)C)C(=O)OCOC(=O)Cc2ccccc2)c(O)c2c1C[C@H]1C[C@H]3[C@H](N(C)C)C(O)=C(C(N)=O)C(=O)[C@@]3(O)C(O)=C1C2=O` [O], for which the responders at 10 mg/kg in assay [1] is above 60%. In the assay on S. pneumoniae 700905, the ED50 lay within 7 to 14 mg/kg.

On to `CCC(=O)OCOC(=O)N(Cc1cc(N(C)C)c2c(c1O)C(=O)C1=C(O)[C@]3(O)C(=O)C(C(N)=O)=C(O)[C@@H](N(C)C)[C@@H]3C[C@@H]1C2)CC(C)(C)C` [P], for which the responders at 10 mg/kg in assay [1] was above 80%. In the assay with S. pneumoniae 700905, this molecule had an ED50 of 14 to 21 mg/kg.

In the case of `CCCC(=O)OCOC(=O)N(Cc1cc(N(C)C)c2c(c1O)C(=O)C1=C(O)[C@]3(O)C(=O)C(C(N)=O)=C(O)[C@@H](N(C)C)[C@@H]3C[C@@H]1C2)CC(C)(C)C` [Q], in assay [1], the responders at 10 mg/kg is above 80%. The same molecule showed an ED50 in the assay with S. pneumoniae 700905 of 14 to 21 mg/kg.

Regarding `CC(C)C(=O)OCOC(=O)N(Cc1cc(N(C)C)c2c(c1O)C(=O)C1=C(O)[C@]3(O)C(=O)C(C(N)=O)=C(O)[C@@H](N(C)C)[C@@H]3C[C@@H]1C2)CC(C)(C)C` [R], the responders at 10 mg/kg in assay [1] is above 80%. The molecule further registered an ED50 in the assay on S. pneumoniae 700905 of 7 to 14 mg/kg.

Source of the values: patent publication US20100249076A1, “PRODRUGS OF 9-AMINOMETHYL TETRACYCLINE COMPOUNDS” (priority 2003, published 2010).
